Measurements published in patent publication US7708999B2, “Remedies for arthritis” (Kyowa Hakko Kirin Co., Ltd., priority 2001, dated 2010).

T1: FGF-8 (Homo sapiens, UniProt P55075)
T1 construct: purchased R & D
T1 sequence (P55075 23-215 isoform P55075-3 limits assumed): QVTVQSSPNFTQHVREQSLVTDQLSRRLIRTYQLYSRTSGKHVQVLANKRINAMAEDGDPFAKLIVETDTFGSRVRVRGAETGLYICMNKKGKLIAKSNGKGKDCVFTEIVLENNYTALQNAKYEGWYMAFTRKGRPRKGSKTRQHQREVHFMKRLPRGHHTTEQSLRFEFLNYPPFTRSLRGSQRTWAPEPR


Key:
[1] = tested on: mouse collagen-induced arthritis model; experiment: Mouse collagen-induced arthritis model; type: in vivo; settings: positive control, 0.3 mg/mL, 1 mL per 100 g orally
Procedure: The mouse collagen-induced arthritis model was prepared in the following manner according to the method of Kamada et al., (Kamada H. et al., Jpn. J. Pharmacol., 70, 169-175, 1996) using DBA/1J mice (male, 7 weeks old, Japan Charles River).
A bovine cartilage-derived type II collagen solution (manufactured by Collagen Gijutsu Kenshu) was mixed with a Freund's complete adjuvant (manufactured by Iatron) under ice cooling to form an emulsion which was adjusted such that the final concentration of the type II collagen became 1.5 mg/mL. The emulsion was intradermally injected in amount of 100 μL at the base of the tail of the mouse for sensitization. Twenty-one days later, the additional immunization was performed in the same manner. One group consisted of 10 mice. Anti-FGF-8 neutralizing antibody KM1334 was dissolved in a saline (manufactured by Otsuka Seiyaku Kojo) to a final concentration of 2 mg/mL, and the solution was intraperitoneally administered to a KM1334 administrated group at a dose of 200 μL for each mouse once a day on days 21, 25, 28, 32, 35 and 39 from the initial sensitization of the mouse collagen-induced arthritis model. […] The change with time of edemas of all limbs in collagen-induced arthritis was evaluated by the scoring from 0 to 4 in each limb to a total of 16 at the maximum score in all limbs. […]

[2] = tested on: rat adjuvant arthritis model; experiment: Rat adjuvant arthritis model; type: in vivo
Procedure: The rat adjuvant arthritis model was performed in the following manner according to the method of Pearson et al. (Pearson CM. et al., Arthritis Rheum., 5, 654-658, 1962) using Lewis rats (female, 8 weeks old, Japan Charles River).
Mycobacterium butyricum (manufactured by Difco) was suspended in a liquid paraffin (manufactured by Wako Pure Chemical Industries, Ltd.) to a final concentration of 6 mg/mL, and sterilized with a autoclave. The resulting solution was intradermally injected into the rat right hind pad in an amount of 100 μL for sensitization. One group consisted of 8 to 10 rats. Anti-FGF-8 neutralizing antibody KM1334 was dissolved in saline to a final concentration of 2 mg/mL. The solution was intraperitoneally administered to a KM1334 administrated group once a day at a dose of 0.5 mL per 100 g of the body weight for each rat on the sensitization day of the rat adjuvant arthritis model and on days 3, 7, 10, 14 and 17 from the sensitization. To saline administrated group, only saline was intraperitoneally administered instead of the anti-FGF-8 neutralizing antibody KM1334 solution. Further, sodium diclofenac, an antiinflammatory agent, was dissolved in a 0.5 w/v % methyl cellulose solution to a final concentration of 0.3 mg/mL, and the solution was orally administered to a sodium diclofenac administrated group as a positive control once a day at a dose of 1 mL per 100 g of the body weight on days 4, 7 to 11 and 14 to 18 from the adjuvant sensitization day. 50 mg of methotrexate® for injection (manufactured by Wyeth Japan) as a metabolic antagonist was dissolved in a 0.5 w/v % methyl cellulose solution to a final concentration of 0.01 mg/mL, and the solution was administered to a methotrexate administrated group in the same manner as in the sodium diclofenac administrated group. Prednisolone (manufactured by Sigma-Aldrich), a steroidal agent, was suspended in a 0.5 w/v % methyl cellulose solution to a final concentration of 0.3 mg/mL, and the suspension was administered to a prednisolone administrated group in the same manner as in the sodium diclofenac administrated group. Further, a 0.5 w/v % methyl cellulose solution alone was orally administered to a solvent administrated group in the same manner. An untreated group was used, and it was not subjected to sensitization with Mycobacterium butyricum and administration of an agent. The volumes of the adjuvant-treated paw and the adjuvant-untreated paw were measured as time goes by using a device for measuring edemas of rat hind paw (TK-101, manufactured by Unicom).
Using urine collected for 24 hours at day 20 and day 21 after the sensitization, the amounts of glycosaminoglycan, deoxypyridinoline, hydroxyproline and creatinine in urine were measured. The amount of glycosaminoglycan in urine was measured by the DMMB method described in Example 1. The amount of hydroxyproline in urine was measured by the method of Ikeda et al. (Ikeda Shingo et al., Tokyo Eiken Nenpo, 36 277-282, 1985). That is, 0.8 mL of hydrochloric acid for amino acid analysis (manufactured by Kanto Kagaku) was added to 0.8 mL of urine to hydrolyze at 110° C. for 15 hours. To 0.5 mL of the hydrolyzed sample was added 2 mL of a 1.2 mol/L sodium hydroxide solution for neutralization. 1 mL of isopropanol was added to 0.5 mL of the neutralized sample, and 1 ml of an oxidant solution was added. The mixture was stirred well, and allowed to stand at room temperature for 5 minutes. […]

FGF-8 = molecular target: T1, FGF-8; experiment: FGF-8 binding activity by BIAcore 2000, immobilized FGF-8; settings: antibody 50 μg/mL; FGF-8 immobilized 4498 RU
Procedure: In order to examine the FGF-8 binding activity of the various anti-FGF-8 neutralizing CDR-grafted antibodies obtained in 4. of Reference Example 2 in more detail, the FGF-8 binding activity of the various anti-FGF-8 neutralizing CDR-grafted antibodies was measured and compared in the following manner using BIAcore2000 (manufactured by BIACORE). The YB2/0 cell-derived anti-FGF-8 neutralizing chimeric antibody KM3334 obtained in 3.(2) of Reference Example 1 was used as a positive control.
HBS-EP (manufactured by BIACORE) was used hereinafter as a sample diluent and a buffer during measurement. First, Sensor Chip CM5 (manufactured by BIACORE) was installed, and FGF-8 (manufactured by R & D) dissolved in 31.25 μg/mL of 10 mmol/L acetate buffer solution (pH 4.0) was immobilized on the surface of the sensor chip by the amine coupling method. The immobilization amount measured by using a resonance signal (RU) as an index was 4498 RU.
60 μL of each of the antibody solutions was added to an FGF-8 immobilized flow cell at a flow rate of 20 μL/min, and the dissociation reaction was then monitored for 3 minutes. After the dissociation reaction, 20 μL of a 10 mmol/L glycine-hydrochloride solution (pH 1.5) was added to the flow cell twice continuously to regenerate the surface of the chip. This cycle was performed with the antibody solution at various concentrations (from 50 to 0.068 μg/mL) to obtain sensor grams at various concentrations. The sensor grams of the respective antibodies were converted to sensor grams of specific reactions by deducing a sensor gram obtained using chimeric antibody KM871 (Shitara K. et al., Cancer Immunol. Immunother., 36, 373-380, 1993) to GD3 as a negative control. […] Accordingly, the binding activity of the various antibodies was compared in terms of the binding [resonance signal (RU)] in the binding reaction. […] The effect of restoring the binding activity was not observed in the 6 amino acid residues of FR of VH.

Molecule	degree of the inhibition of the arthritic score compared with the KM1334 administrated group [1]	Bone destruction score ([2]; Table 2, soft X-ray of calcaneus, adjuvant-untreated paw, day 21, maximum 5, mean ± standard error, oral comparators)	Bone destruction score (% inhibition) ([2]; Table 2, vs solvent group) [%]	inhibition of the increase in paw volume, adjuvant-untreated paw ([2]; day 21, oral, 1 mL per 100 g: sodium diclofenac 0.3 mg/mL, methotrexate 0.01 mg/mL, prednisolone 0.3 mg/mL, vs solvent group) [%]	inhibition of the increase (decrease) in amount of glycosaminoglycan in urine ([2]; urine day 20 to 21, oral comparators vs solvent group, diclofenac and prednisolone not significant) [%]	inhibition of the increase (decrease) in amount of deoxypyridinoline in urine ([2]; urine day 20 to 21, oral comparators vs solvent group, methotrexate and prednisolone not significant) [%]	binding reaction [resonance signal (RU)] (FGF-8)
O=C(O)Cc1ccccc1Nc1c(Cl)cccc1Cl [sodium diclofenac]	the same	3.1 ± 0.6	33	45	40	88	–
HV0LV0: YB2/0 cell-derived anti-FGF-8 neutralizing CDR-grafted antibody, VH HV.0 (SEQ ID NO. 18), VL LV.0 (SEQ ID NO. 19) (antibody, V domains shown, HV.0, a designed amino acid sequence of VH of an anti-FGF-8 CDR-grafted neutralizing antibody; LV.0, a designed amino acid sequence of VL of an anti-FGF-8 CDR-grafted neutralizing antibody) VH: QVQLVQSGAEVKKPGASVKVSCKASGYTFTDYYLNWVRQAPGQGLEWMGEIDPGSDSIYYNENLEGRVTITADTSTSTAYMELSSLRSEDTAVYYCARYGYSRYDVRFVYWGQGTLVTVSS VL: DIVMTQSPLSLPVTPGEPASISCRSSQSLVHSNGRTYLEWYLQKPGQSPQLLIYKVSNRISGVPDRFSGSGSGTDFTLKISRVEAEDVGVYYCFQGSHVPYTFGQGTKVEIK	–	–	–	–	–	–	slightly low in comparison to KM3334 and HV0LV6
HV6LV6: YB2/0 cell-derived anti-FGF-8 neutralizing CDR-grafted antibody, VH HV.6 (SEQ ID NO. 20), VL LV.6 (SEQ ID NO. 21) (antibody, V domains shown, HV.6, a designed amino acid sequence of VH of an anti-FGF-8 CDR-grafted neutralizing antibody; LV.6, a designed amino acid sequence of VL of an anti-FGF-8 CDR-grafted neutralizing antibody) VH: QVQLVQSGAEVARPGASVKVSCKASGYTFTDYYLNWVRQRSGQGLEWIGEIDPGSDSIYYNENLEGRVTITADTSTSTAYMELSSLRSEDTAVYFCARYGYSRYDVRFVYWGQGTLVTVSS VL: DVVMTQSPLSLPVSLGEPASISCRSSQSLVHSNGRTYLEWYLQKPGQSPKVLIYKVSNRISGVPDRFSGSGSGTDFTLKISRVEAEDVGVYFCFQGSHVPYTFGQGTKVEIK	–	–	–	–	–	–	slightly low in comparison to KM3334 and HV0LV6
